Publication PMC5526570, “In vitro and in vivo anti-inflammatory active copper(II)-lawsone complexes” (PLoS ONE, 2017)
Entries after “also recorded” stand apart in the source; their conditions may differ.

Assays:
NF-κB = NF-κB activity, secreted alkaline phosphatase reporter in THP1-XBlue-MD2-CD14 cells; format: cell-based, human; settings: 1 h pretreatment, 24 h; for decrease of NF-κB activity stimulated by LPS: LPS 1 μg/mL; for decrease of NF-κB activity stimulated by TNF-α: TNF-α 10 ng/mL; for decrease of NF-κB activation induced by Pam3CSK4: Pam3CSK4 100 ng/mL
Protocol: The THP-1 human monocytic leukemia cell line was obtained from the European Collection of Cell Cultures (ECACC, Salisbury, UK) and THP1-XBlue™-MD2-CD14 cells were purchased from Invivogen (San Diego, USA). The cells were cultivated at 37°C in the RPMI 1640 medium supplemented with 2 mM L-glutamine, 10% FBS, 100 U/mL penicillin, and 100 μg/mL streptomycin in a humidified atmosphere containing 5% CO2. The culture was split twice a week when the cells had reached the concentration of 5–7×10^5 cells/mL. The cell count and viability were determined following staining with erythrosin B. The cells were counted manually using a hemocytometer and a light microscope.
One hundred microliters of the stabilized THP-1 cells (5th-20th passage) were split into 96-well plates to afford the concentration of 5×10^5 cells/mL, and differentiation into macrophages was induced by the addition of phorbol myristate acetate (PMA), as described previously. THP1-XBlue™-MD2-CD14 cells were used without any differentiation due to their stabile expression of MD2 and CD14 co-receptors.
THP1-XBlue™-MD2-CD14 cells were transferred into a serum-free medium at the concentration of 5×10^5 cells/mL. The floated cells were pretreated with the tested compounds (i.e. complexes 1–7, [Cu(Law)2(H2O)2]·0.5H2O, and Hlaw, respectively) and stimulated either by LPS (1 μg/mL), or by the addition of human recombinant TNF-α (10 ng/mL; Invivogen), or by Pam3CSK4 (100 ng/mL; Invivogen), a synthetic triacylated lipoprotein and selective Toll-like receptor 1/2 agonist. After 24 h of the incubation, 20 μL of the cultivation medium was mixed with 180 μL of Quanti-Blue medium and incubated according to the manufacturer’s instructions at 37°C for 2 h. The activity of released alkaline phosphatase, directly proportional to the NF-κB activity, was quantified from the difference in absorbance at 655 nm against the untreated control.

[1] = system: PMN infiltration of hind paw tissue; test: Ex vivo histological evaluation of hind paw tissue (hematoxylin/eosin); format: in vivo, rat; settings: rats, i.p., tissue after 6 h
Source text: All the animals were sacrificed by cervical dislocation, and immediately after that, the affected hind paws were separated and underwent the process of dehydration and fixation, and were embedded into paraffin blocks by means of standard protocols. The histopathological changes, like infiltration of different skin elements and deeper laying tissues by the polymorphonuclear white blood cells (dominantly neutrophils and lymphocytes) stained by the standard hematoxylin/eosin staining, were evaluated.

TNF-α = TNF-α secretion in LPS-stimulated THP-1 macrophages (ELISA); format: cell-based, human; settings: 100 nM, 1 h pretreatment, LPS 1 μg/mL, 24 h
Protocol: One hundred microliters of the stabilized THP-1 cells (5th-20th passage) were split into 96-well plates to afford the concentration of 5×10^5 cells/mL, and differentiation into macrophages was induced by the addition of phorbol myristate acetate (PMA), as described previously. […] Whereas the complexes were dissolved in PBS, lawsone was dissolved in DMSO. With respect to the results of cytotoxicity assay, the concentration of 100 nM should not affect the viability of the target cells in any way. For comparative purposes, a conventional drug prednisone was used at the standard dose of 1 μM dissolved in DMSO. Then, the DMSO was added to the rest of the wells. […] Vehicle-treated cells contained a vehicle (0.1% DMSO) only. The TNF-α secretion in the pretreated differentiated THP-1 macrophages was induced by the addition of 1 μg/mL LPS dissolved in sterile water. The basal cytokine expression level was determined in the control cells without the LPS stimulation. LPS triggers an inflammatory response through binding to toll-like receptor 4 (TLR-4) and subsequently activates the NF-κB signaling pathway. The cultivation medium was aspirated 24 h after the LPS addition and the cell residue was removed by centrifugation. The concentration of the secreted TNF-α was determined using the Human TNF-α Instant ELISA kit.

[2] = In vitro cytotoxicity, WST-1 assay, 24 h; format: cell-based; settings: human, THP-1 monocytic leukemia cells
Protocol: The final concentration of the solvent in the culture medium was 0.1% (v/v). The cells were incubated at 37°C with 5% CO2 for 24 h. After the incubation, the cytotoxicity was determined by the Cell Proliferation Reagent WST-1 kit according to the manufacturer´s instructions.

[3] = system: carrageenan-induced hind paw edema; test: Carrageenan-induced hind paw edema, plethysmometry; format: in vivo, rat; settings: rats, i.p., dose corresponding to 40 mmol Cu/kg (ca. 20 mg/kg), 30 min before carrageenan, up to 6 h
Protocol: Wistar—SPF (6–8 weeks male) rats were obtained from the AnLab, Ltd., Prague. The animals were kept in plexiglass cages at the constant temperature of 22±1°C, and relative humidity of 55±5% for at least 1 week before the experiment. They were given food and water ad libitum. After a one-week adaptation period, male Wistar-SPF rats (200–250 g) were randomly assigned into ten groups (n = 7) of animals in the study. The first, control group, received 10% DMF (v/v in water, intraperitoneal; i.p.). The next eight groups were pretreated with complexes 1–7 and [Cu(Law)2(H2O)2]·0.5H2O (at the dose corresponding to […] Cu/kg; ca. 20 mg/kg) and involved into the carrageenan-treatment. The last group was treated with a non-steroidal anti-inflammatory drug Indomethacin (5 mg/kg), which served as a positive control (Indomethacin + carrageenan).
The carrageenan-induced hind paw edema model was used for the determination of the anti-inflammatory activity. […] The paw volume was measured immediately after the carrageenan injection and during the next 6 h after the administration of the edematogenic agent using a plethysmometer (model 7159, Ugo Basile, Varese, Italy). The degree of swelling induced was evaluated as the percentage of change in the volume of the right hind paw after the carrageenan treatment from the volume of the right hind paw before the carrageenan treatment.

[4] = 100 nM, vs vehicle-treated cells

## [Cu(Law)2(3-apy)2]·0.5H2O [compound 4]
NF-κB; [4]
  decrease of NF-κB activity stimulated by LPS: 19–24%

## COc1ccc2c(c1)c(CC(=O)O)c(C)n2C(=O)c1ccc(Cl)cc1 [indomethacin, reference compound]
[1]; 5 mg/kg
  PMN infiltration / inflammatory reaction in hind paw tissue: mainly scarce and diffuse

## C[C@]12C=CC(=O)C=C1CC[C@@H]1[C@@H]2C(=O)C[C@@]2(C)[C@H]1CC[C@]2(O)C(=O)CO [prednisone, reference compound]
NF-κB; 1 μM
  decrease of NF-κB activity stimulated by LPS: 26%
  decrease of NF-κB activity stimulated by TNF-α: 37%

## O=C1C=C(O)C(=O)c2ccccc21 [lawsone, 2-hydroxy-1,4-naphthoquinone]
TNF-α
  decrease of TNF-α expression/secretion in LPS-stimulated cells: 28%
NF-κB; [4]
  decrease of NF-κB activity stimulated by LPS: 19–24%
NF-κB; 100 nM
  decrease of NF-κB activity stimulated by TNF-α: 32%
[2]
  viability at 24 h, 10 µM: ~80%

## O.O=C1C=C([O-])C(=O)c2ccccc21.O=C1C=C([O-])C(=O)c2ccccc21.[Cu+2].c1ccncc1 [compound 1, [Cu(Law)2(H2O)(py)]]
[1]; (ca. 20 mg/kg)
  PMN infiltration / inflammatory reaction in hind paw tissue: mainly scarce and diffuse
NF-κB; [4]
  decrease of NF-κB activity stimulated by LPS: did not affect
NF-κB; 100 nM
  decrease of NF-κB activation induced by Pam3CSK4: no noticeable effect
[3]
  antiedematous activity (hind paw swelling): diminish completely the swelling of the hind paw; also recorded: most active

## [Cu(Law)2(H2O)(2-apy)]·0.5H2O [compound 3]
TNF-α
  decrease of TNF-α expression/secretion in LPS-stimulated cells: greatest potential
NF-κB; [4]
  decrease of NF-κB activity stimulated by LPS: 19–24%
NF-κB; 100 nM
  decrease of NF-κB activation induced by Pam3CSK4: most efficient

## O=C1C=C([O-])C(=O)c2ccccc21.O=C1C=C([O-])C(=O)c2ccccc21.[Cu+2].c1c[nH]cn1.c1c[nH]cn1 [compound 2, [Cu(Law)2(Im)2]]
NF-κB; [4]
  decrease of NF-κB activity stimulated by LPS: 10%
NF-κB; 100 nM
  decrease of NF-κB activation induced by Pam3CSK4: no noticeable effect

## [Cu(Law)2(3-OHpy)2] [compound 6]
NF-κB; [4]
  decrease of NF-κB activity stimulated by LPS: 12%

## [Cu(Law)2(3,5diMePz)2]·0.5H2O [compound 7]
[1]; (ca. 20 mg/kg)
  PMN infiltration / inflammatory reaction in hind paw tissue: massive presence of PMN cells
NF-κB; [4]
  decrease of NF-κB activity stimulated by LPS: 19–24%
[3]
  antiedematous activity (hind paw swelling): least active
